Assay results: ChEMBL document CHEMBL5137086, “Discovery of 1-(Hetero)aryl-β-carboline Derivatives as IDO1/TDO Dual Inhibitors with Antidepressant Activity” (J Med Chem, 2022)

How the values were obtained:
[1] = molecular target: T1, Indoleamine 2,3-dioxygenase 1 (Homo sapiens, UniProt P14902); assay: Inhibition of IDO1 (unknown origin) assessed as reduction in kynurenine production using L-tryptophan as substrate at 50 uM incubated for 1 hr by absorbance based microplate reader analysis relative to control
Target sequence in this assay (P14902 whole entry, looked up): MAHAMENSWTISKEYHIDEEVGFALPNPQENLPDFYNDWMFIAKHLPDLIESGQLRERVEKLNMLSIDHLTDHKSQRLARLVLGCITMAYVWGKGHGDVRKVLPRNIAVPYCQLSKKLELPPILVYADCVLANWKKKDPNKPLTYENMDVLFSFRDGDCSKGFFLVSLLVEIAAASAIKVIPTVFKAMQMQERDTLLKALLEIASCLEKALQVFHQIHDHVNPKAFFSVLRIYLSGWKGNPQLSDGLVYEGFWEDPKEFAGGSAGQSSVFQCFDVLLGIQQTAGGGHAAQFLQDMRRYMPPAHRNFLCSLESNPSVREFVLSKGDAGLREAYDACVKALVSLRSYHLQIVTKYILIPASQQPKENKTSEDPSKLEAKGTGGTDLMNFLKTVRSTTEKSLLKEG

[2] = molecular target: T2, Tryptophan 2,3-dioxygenase (Homo sapiens, UniProt P48775); assay: Inhibition of TDO (unknown origin) assessed as reduction in N-formylkynurenine formation using L-tryptophan as substrate incubated for 75 mins by UV absorbance based analysis
Target sequence in this assay (P48775 whole entry): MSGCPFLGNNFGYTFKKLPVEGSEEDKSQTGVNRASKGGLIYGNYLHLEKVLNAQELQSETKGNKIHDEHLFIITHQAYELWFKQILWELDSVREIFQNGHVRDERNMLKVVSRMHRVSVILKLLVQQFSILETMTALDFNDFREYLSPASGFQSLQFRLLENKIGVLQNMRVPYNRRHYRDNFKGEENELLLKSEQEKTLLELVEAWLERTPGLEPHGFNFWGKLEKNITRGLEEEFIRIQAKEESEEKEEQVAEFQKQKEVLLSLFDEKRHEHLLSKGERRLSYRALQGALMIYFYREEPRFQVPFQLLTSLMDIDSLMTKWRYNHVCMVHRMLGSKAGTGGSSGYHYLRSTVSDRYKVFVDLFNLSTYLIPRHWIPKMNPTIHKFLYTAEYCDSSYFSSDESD

[3] = molecular target: T2, Tryptophan 2,3-dioxygenase; assay: Inhibition of TDO (unknown origin) assessed as reduction in N-formylkynurenine formation using L-tryptophan as substrate at 50 uM incubated for 75 mins by UV absorbance based analysis relative to control
Target sequence in this assay (P48775 whole entry, looked up): as the sequence (P48775 whole entry) above

[4] = molecular target: T1, Indoleamine 2,3-dioxygenase 1; assay: Inhibition of IDO1 (unknown origin) assessed as reduction in kynurenine production using L-tryptophan as substrate incubated for 1 hr by absorbance based microplate reader analysis
Target sequence in this assay (P14902 whole entry): as the sequence (P14902 whole entry, looked up) above

FC(F)(F)c1cccc(-c2nccc3c2[nH]c2ccccc23)c1
inhibition [1]: 9%
IC50 [2]: 5.39 µM
inhibition [3]: 88%

Fc1cccc(-c2nccc3c2[nH]c2ccccc23)c1
inhibition [1]: 28%
IC50 [2]: 10.9 µM
inhibition [3]: 86%

c1ccc2c(c1)[nH]c1c(-c3cc[nH]n3)nccc12
inhibition [1]: 34%
inhibition [3]: 7%

Fc1ccc(-c2nccc3c2[nH]c2ccccc23)cc1
inhibition [1]: 27%
inhibition [3]: 3%

c1ccc2c(c1)[nH]c1c(-c3ccsc3)nccc12
inhibition [1]: 34%
IC50 [2]: 0.81 µM
inhibition [3]: 94%

Oc1ccc(-c2nccc3c2[nH]c2ccccc23)cc1
inhibition [1]: 24%
inhibition [3]: 4%

c1ccc2c(c1)[nH]c1c(-c3cscn3)nccc12
inhibition [1]: 3%
inhibition [3]: 4%

O=[N+]([O-])c1ccc(-c2nccc3c2[nH]c2ccccc23)cc1
IC50 [4]: 8.44 µM
inhibition [1]: 94%
inhibition [3]: 3%

Clc1cccc(-c2nccc3c2[nH]c2ccccc23)c1
IC50 [4]: > 50 µM
inhibition [1]: 55%
IC50 [2]: 13.4 µM
inhibition [3]: 88%

c1cncc(-c2nccc3c2[nH]c2ccccc23)c1
inhibition [1]: 26%
IC50 [2]: 2.14 µM
inhibition [3]: 89%

N#Cc1cccc(-c2nccc3c2[nH]c2ccccc23)c1
IC50 [4]: > 50 µM
inhibition [1]: 66%
IC50 [2]: 15.3 µM
inhibition [3]: 78%

c1coc(-c2nccc3c2[nH]c2ccccc23)c1
inhibition [1]: 33%
inhibition [3]: 37%

Brc1ccc(-c2nccc3c2[nH]c2ccccc23)cc1
IC50 [4]: > 50 µM
inhibition [1]: 51%
inhibition [3]: 5%

Cc1nccc2c1[nH]c1ccccc12 [HARMAN]
inhibition [1]: 34%
IC50 [2]: 6.31 µM
inhibition [3]: 85%

c1ccc2c(c1)[nH]c1c(-c3ccncc3)nccc12
inhibition [1]: 46%
inhibition [3]: 36%

O=[N+]([O-])c1cccc(-c2nccc3c2[nH]c2ccccc23)c1
IC50 [4]: 8.28 µM
inhibition [1]: 96%
inhibition [3]: 6%

c1ccc2c(c1)[nH]c1cnccc12 [NORHARMANE]
inhibition [1]: 48%
IC50 [2]: 1.2 µM
inhibition [3]: 86%

Fc1cc(-c2nccc3c2[nH]c2ccccc23)ccc1Br
IC50 [4]: 32.7 µM
inhibition [1]: 71%
inhibition [3]: 4%

c1ccc2c(c1)[nH]c1c(-c3nccs3)nccc12
inhibition [1]: 5%
inhibition [3]: 2%

c1ccc2c(c1)[nH]c1c(-c3ccoc3)nccc12
inhibition [1]: 5%
IC50 [2]: 1.14 µM
inhibition [3]: 92%

c1ccc2c(c1)[nH]c1c(-c3ncc[nH]3)nccc12
inhibition [1]: 26%
inhibition [3]: 4%

N#Cc1ccc(-c2nccc3c2[nH]c2ccccc23)cc1
IC50 [4]: > 50 µM
inhibition [1]: 53%
IC50 [2]: 12 µM
inhibition [3]: 75%

Clc1ccc(-c2nccc3c2[nH]c2ccccc23)cc1
IC50 [4]: 7.58 µM
inhibition [1]: 86%
IC50 [2]: 8.29 µM
inhibition [3]: 81%

Clc1cc(Cl)cc(-c2nccc3c2[nH]c2ccccc23)c1
IC50 [4]: 16.5 µM
inhibition [1]: 75%
inhibition [3]: 8%

Brc1cccc(-c2nccc3c2[nH]c2ccccc23)c1
IC50 [4]: 4.95 µM
inhibition [1]: 93%
IC50 [2]: 20.3 µM
inhibition [3]: 65%

FC(F)(F)c1ccc(-c2nccc3c2[nH]c2ccccc23)cc1
inhibition [1]: 13%
inhibition [3]: 5%

c1ccc(-c2nccc3c2[nH]c2ccccc23)cc1
inhibition [1]: 7%
IC50 [2]: 7.24 µM
inhibition [3]: 86%

c1csc(-c2nccc3c2[nH]c2ccccc23)c1
IC50 [4]: > 50 µM
inhibition [1]: 61%
IC50 [2]: 10.8 µM
inhibition [3]: 82%

O=C1CC(c2c[nH]c3ccc(F)cc23)C(=O)N1 (stereo unspecified)
inhibition [1]: 92%

c1ccc2c(c1)[nH]c1c(-c3cnn[nH]3)nccc12
IC50 [4]: 13.9 µM
inhibition [1]: 91%
IC50 [2]: 19.5 µM
inhibition [3]: 77%
